Results reported in patent US10933077B2, “TLR4 inhibitors for the treatment of human infectious and inflammatory disorders” (UNIVERSITY OF PITTSBURGH—OF THE COMMONWEALTH SYSTEM OF …, priority 2010, dated 2021).
Structures can show the parent of a compound that is named as a salt.

Columns and labels:
Format in all cases: in vivo
[1] = tested on: LPS-induced NFkB activation; assay: NFkB-luciferase reporter mice assay (LPS-induced endotoxemia); settings: for inhibition of LPS-induced NFkB activation: 20 nanomoles test compound i.p. 30 minutes prior to LPS 2 mg/kg, 6 hrs, IVIS luciferase imaging
Procedure: (§1) Compound preparation and delivery. All 65 identified compounds were received in solid form and stored at 4° C. until use. Stock solutions of each compound were made by dissolving the appropriate amount of each compound in dimethyl sulfoxide (DMSO) to yield a concentration of 10 mM. Immediately prior to injection into experimental animals, the compounds were diluted to an experimental concentration of 100 uM in phosphate-buffered saline (PBS). Total concentration of DMSO in the final diluted drug was 1%. Compounds were closely examined to insure that no precipitate formed prior to injection and were stored on ice until injection. All compounds were given via intraperitoneal (i.p.) injection in a total volume of 200 ul using a 1 cc syringe and 27 gauge needle. In all experiments listed below, the compounds were delivered to the experimental mice 30 minutes prior to injection with lipopolysaccharide (LPS) to induce endotoxemia. Control animals not receiving compound received 1% DMSO dissolved in PBS. Following drug injection, the mice were observed closely in their cages for signs of immediate toxicity or adverse reaction to the drug, including but not limited to piloerection, tachypnea, bleeding, abnormal or aggressive behavior, signs of altered mental status, and level of activity.
(§2) Induction of endotoxemia. All mice were housed and cared for at the Rangos Research Center, Children's Hospital of Pittsburgh (Pittsburgh, Pa.). All experiments were approved by the Children's Hospital of Pittsburgh Animal Care Committee and by the Institutional Review Board of the University of Pittsburgh. Swiss Webster (CFW) and NFkB-luciferase reporter mice were obtained from The Jackson Laboratory. Throughout the course of all experiments, mice were housed 4 per cage with access to food, water, and standard bedding. Endotoxemia was induced in all experiments by i.p. injection of LPS (Escherichia coli 0111:B4 purified by gel filtration chromatography, >99% pure, Sigma-Aldrich) at a dose of 2 mg/kg for 6 hours. At the end of each experiment, all animals were euthanized by CO2 hypoxia and cervical dislocation.
NFkB-luciferase reporter mice assay. NFkB-luciferase reporter mice, in which the […], were subjected to endotoxemia with or without pretreatment with experimental compounds. The experimental compounds treated by this assay were compounds 1-6, with compounds 1-3 tested first and compounds 4-6 tested later. For both experiments, the mice were 6 weeks old on the date of the experiment. […] After whole body imaging, an additional injection of luciferin is given and animals were euthanized, organs were harvested, and the extent of NFkB activation within various tissues was further analyzed by an additional luminescence image of the individual organs. […]

TLR4 = target: T1, TLR4 (Mus musculus, UniProt Q9JHF9+Q9QUK6); assay: CFW endotoxemia assay (observation of behavior and phenotype after LPS); settings: CFW mice, 20 nanomoles compound i.p. 30 minutes prior to LPS 2 mg/kg, 6 hours; for Observation (Compound “Negatives”): listed as “Negatives”; for Observation (Compound “Hits”): listed as “Hits”
T1 construct: Swiss Webster (CFW) and NFkB-luciferase reporter mice were obtained from The Jackson Laboratory; tissue The Jackson Laboratory; host or cells: whole live Swiss Webster (CFW) mice
T1 sequence (Q9QUK6 26-835): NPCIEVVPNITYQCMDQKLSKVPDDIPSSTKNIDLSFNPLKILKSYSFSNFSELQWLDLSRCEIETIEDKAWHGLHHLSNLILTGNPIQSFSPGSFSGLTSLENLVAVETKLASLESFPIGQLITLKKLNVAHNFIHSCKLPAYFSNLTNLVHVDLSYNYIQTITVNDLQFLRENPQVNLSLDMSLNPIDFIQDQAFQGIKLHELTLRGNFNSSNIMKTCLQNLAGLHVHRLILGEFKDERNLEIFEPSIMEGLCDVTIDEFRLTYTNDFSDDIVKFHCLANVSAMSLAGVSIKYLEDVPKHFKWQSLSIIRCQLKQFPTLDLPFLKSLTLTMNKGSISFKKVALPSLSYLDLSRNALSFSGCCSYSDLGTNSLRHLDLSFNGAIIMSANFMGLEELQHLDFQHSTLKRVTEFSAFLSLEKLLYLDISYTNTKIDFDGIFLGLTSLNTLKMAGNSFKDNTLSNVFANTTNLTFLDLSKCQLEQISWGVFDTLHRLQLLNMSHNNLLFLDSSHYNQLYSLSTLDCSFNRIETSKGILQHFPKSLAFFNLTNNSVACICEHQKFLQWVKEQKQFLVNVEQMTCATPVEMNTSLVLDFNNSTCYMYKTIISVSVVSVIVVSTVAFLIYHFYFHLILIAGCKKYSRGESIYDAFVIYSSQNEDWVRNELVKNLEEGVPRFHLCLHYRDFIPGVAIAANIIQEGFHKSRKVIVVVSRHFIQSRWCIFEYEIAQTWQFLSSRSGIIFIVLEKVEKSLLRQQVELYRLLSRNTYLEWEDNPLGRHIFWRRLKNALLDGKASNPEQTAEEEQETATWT
T1 sequence (Q9JHF9 19-160): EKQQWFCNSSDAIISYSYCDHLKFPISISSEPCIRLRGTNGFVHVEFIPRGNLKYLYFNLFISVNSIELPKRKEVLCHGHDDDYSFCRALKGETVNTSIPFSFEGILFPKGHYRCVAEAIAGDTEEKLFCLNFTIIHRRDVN
Procedure: as §1, §2
CFW endotoxemia assay. In order to effectively screen the entire compound list, the remaining compounds (7-60) were screened in a model of endotoxemia using CFW mice. Three separate experiments were performed: First, Compound 7 along with a repeat of compound 4 (n=3 mice per compound, mice age 5 weeks) were tested. Controls were saline injection alone (n=1), LPS 2 mg/kg 6 hrs (n=2). Second, compounds 3, 4, 6, 8-32 were tested (n=1 mouse each, 3 week old mice). Controls were saline injection alone (n=1), LPS 2 mg/kg 6 hrs (n=2), LPS 10 mg/kg 6 hrs (n=2), Bay 11 pretreatment 20 mg/kg for 30 minutes prior to LPS 2 mg/kg 6 hrs. Third, compounds 8, 16, 33-60 were tested (n=1 mouse each, 3 week old mice). Controls were saline injection alone (n=1), LPS 2 mg/kg 6 hrs (n=2), Bay 11 pretreatment 20 mg/kg for 30 minutes prior to LPS 2 mg/kg 6 hrs. Following 6 hours of endotoxemia, mice from the second and third experiments were observed within their cages and videotaped to document behavior and phenotypic differences to assess for an inhibitory effect of compound pretreatment on the effects of LPS. Mice were identified by a number previously placed using permanent marker on their tails. The degree of piloerection, tachypnea, location in the cage (center of cage versus corners), degree of activity, and behavior relative to other animals was observed and documented via video for each mouse.
Less activity, tachypnea, and piloerection are considered symptomatic of endotoxemia, so a decrease in these is consistent with TLR inhibition by the administered compound. Note that compounds listed as negatives may still be T4Ics at other concentrations or conditions.

iNOS mRNA = assay: CFW-NEC mouse model (formula feeding), iNOS mRNA levels; settings: 1 mg/kg, i.p., once daily for the first four days of the five day model; relative to RPLO
Excerpt: Inducible nitric oxide synthase (iNOS) is associated with necrotizing enterocolitis (NEC) in human infants. In a second set of experiments, the CFW-NEC mouse model system for NEC was used to evaluate the effect of various compounds from TABLES 1 and 2 above on iNOS mRNA levels. A model system for NEC was induced in newborn mouse pups by formula feeding, where control animals were breast-fed (Sodhi et al., 2010, Gastroenterol. 138(1):185-196; Richardson et al., 2010, Gastroenterol. 139(3):904-917). […] Note that RPLO stands for 505 ribosomal subunit protein L15, an acknowledged housekeeping gene, which means that it is a constitutive gene expressed at relatively constant levels by all cells and is thus used as a reference for comparing other genes which may vary under experimental conditions. In this same model system, levels of TLR4 mRNA levels were also evaluated. […] In contrast, the level of TLR4 was not increased in FF animals treated with C34 (1 mg/kg, i.p. once daily for the first four days of the five day model) and indeed mRNA levels were 30 percent below normal (see FIG. 14).

## CC(=O)NC1C(OP(=O)(O)O)OC(CO)C(O)C1O (centres unmarked) [Compound 4, 3-acetamido-4,5-dihydroxy-6-(hydroxymethyl)tetrahydro-2H-pyran-2-yl dihydrogen phosphate, sodium salt]
[1]; phosphate, sodium salt
  inhibition of LPS-induced NFkB activation: greatest inhibitory activity

## CCCCCCCCCCCCCCCCCCCCCCCCCC(=O)NC(COC1OC(CO)C(O)C(O)C1O)C(O)C(O)CCCCCCCCCCCCCC [Compound 2, N-{(1S,2S,3R)-1-[(beta-L-glycero-hexopyranosyloxy)methyl]-2,3-dihydroxyheptadecyl}hexacosanamide]
[1]
  inhibition of LPS-induced NFkB activation: exception

## CC(=O)N[C@H]1[C@@H](OP(=O)([O-])OP(=O)([O-])OC[C@H]2O[C@@H](n3ccc(=O)[nH]c3=O)[C@H](O)[C@@H]2O)O[C@H](CO)[C@@H](O)[C@@H]1O.[Na+].[Na+] [Compound 41, Uridine 5′-diphospho-N-acetylglucosamine sodium salt]
TLR4
  Observation (Compound “Negatives”): Less active, huddled in corner

## CC(=O)NC1C(O)OC(CO)[C@@H](O[C@@H]2OC(CO)[C@H](O)C(O)C2O)C1O (some centres unmarked) [Compound 27, 2-(acetylamino)-2-deoxy-4-O-hexopyranosylhexopyranose]
iNOS mRNA
  increase of iNOS mRNA level in formula-fed (FF) pups: much less

## CCO[C@@H]1O[C@H](COC(C)=O)[C@@H](OC(C)=O)[C@H](OC(C)=O)[C@H]1NC(C)=O [Compound 55, ethyl 3,4,6-tri-O-acetyl-2-(acetylamino)-2-deoxy-beta-D-glycero-hexopyranoside]
TLR4
  Observation (Compound “Hits”): Less piloerection, less tachypnea, more active

## CC(=O)NC1C(O)OC(CO)C(OC2OC(C)C(O)C(O)C2O)C1OC1OC(CO)C(O)C(O)C1O (centres unmarked) [Compound 45, 2-(acetylamino)-2-deoxy-4-O-(6-deoxyhexopyranosyl)-3-O-hexopyranosylhexopyranose]
TLR4
  Observation (Compound “Hits”): More active, crawled over other mice, less piloerection

## CC(=O)N[C@H]1C(O)O[C@H](CO)[C@H](O)[C@@H]1O.O (stereo partly drawn) [Compound 16, 2-(acetylamino)-2-deoxy-D-galactopyranose hydrate]
[1]; LPS 2 mg/kg plus compound 1 mg/kg i.p.
  NFκB signalling (luciferase imaging): reduced NFκB signalling

## CCCCO[C@@H]1O[C@H](CO)[C@@H](OC)[C@H](OC)[C@H]1NC(C)=O [Compound 14, butyl 2-(acetylamino)-2-deoxy-3,4-di-O-methyl-beta-D-glucopyranoside]
TLR4
  Observation (Compound “Negatives”): Refused to move from corner, very tachpneic

## CC(=O)NC1C(O)OC(CO)C(O)C1O [Compound 52, 2-(acetylamino)-2-deoxy-beta-D-glycero-hexopyranose]
TLR4
  Observation (Compound “Hits”): More active, less piloerection

## CC(=O)N[C@H]1C(O)O[C@H](CO)[C@@H](O)[C@@H]1O[C@H](C)C(=O)N[C@@H](C)C(=O)N[C@H](CCC(=O)O)C(N)=O (stereo partly drawn) [Compound 40, (4R)-4-((2S)-2-((2R)-2-((3R,4R,5S,6R)-3-acetamido-2,5-dihydroxy-6-(hydroxymethyl)tetrahydro-2H-pyran-4-yloxy)propanamido)propanamido)-5-amino-5-oxopentanoic acid]
TLR4
  Observation (Compound “Negatives”): Less active, huddled in corner

## COC(=O)C1(OC)CC(O)C(NC(C)=O)C(C(O)C(O)CO)O1 [Compound 25, dimethyl 5-(acetylamino)-3,5-dideoxy-D-erythro-non-2-ulopyranosidonate]
TLR4
  Observation (Compound “Negatives”): More piloerection, less mobile than other in the cage
